Measured values as given in patent publication US20060228419A1, “Solvent-free process for preparation of hydrophilic dispersions of nanoparticles of inclusion complexes” (SoluBest Ltd., priority 2005, published 2006).

Target: T1, hyaluronidase (Bos taurus, UniProt Q2YDK3)
T1 construct: purchased Sigma H 3506; host or cells: bovine testes (natural source)
T1 sequence (Q2YDK3 36-553): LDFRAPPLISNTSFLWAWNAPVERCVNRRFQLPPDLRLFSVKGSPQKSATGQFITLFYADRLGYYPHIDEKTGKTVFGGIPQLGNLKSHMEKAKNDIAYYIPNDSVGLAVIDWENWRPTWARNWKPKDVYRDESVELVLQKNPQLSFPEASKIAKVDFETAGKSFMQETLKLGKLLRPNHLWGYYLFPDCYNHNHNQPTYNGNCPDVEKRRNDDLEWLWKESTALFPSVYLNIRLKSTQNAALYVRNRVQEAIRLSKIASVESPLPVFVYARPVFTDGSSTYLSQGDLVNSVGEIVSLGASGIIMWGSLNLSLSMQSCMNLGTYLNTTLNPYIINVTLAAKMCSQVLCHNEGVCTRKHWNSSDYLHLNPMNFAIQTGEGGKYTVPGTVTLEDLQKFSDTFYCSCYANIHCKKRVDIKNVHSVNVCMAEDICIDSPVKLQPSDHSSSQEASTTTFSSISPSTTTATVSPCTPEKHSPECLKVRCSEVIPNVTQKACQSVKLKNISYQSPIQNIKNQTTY
Experiment: Stability in the presence of hyaluronidase (decrease of viscosity)
Format: in vitro ADME, bovine
Experimental: The stability of Solu-NaHA in the presence of the enzyme specific for hyaluronic acid, hyaluronidase (Sigma, H 3506, Hyaluronidase lyophilized (EC 3.2.1.35) Type I-S, from bovine testes, 608 U/mg solid) was measured by the decrease of the viscosity in time in comparison to blank. The degree of stability (protection against action of hyaluronidase) is defined as a decrease in the viscosity of the NaHA solution upon addition of the enzyme (dose of enzyme—10 U/ml). The control used was 0.1% solution of NaHA without the wrapping polymer (blank). Samples were maintained on a water bath at temperature 37° C. during 5 hrs. Sample made by Visco Star Plus. The decrease in viscosity was estimated in percentage to its initial value. The results in FIG. 5 show the stability of Solu-NaHA prepared with polymer A (NaHA with HPS) or with Polymer B (NaHA with B-790) against the action of hyaluronidase, established as 84-100% vs control 58-63%.
The stability of NaHA in the Solu-NaHA in the presence of hyaluronidase was measured by the decrease of the viscosity over time in comparison to blank. The stability of Solu-NaHA against the action of hyaluronidase was 70-90% vs 40-45% in blank (0.5% solution of NaHA).
The degree of stability of NaHA was measured as described in Example 7 above. The control used was 0.5% solution of NaHA without any polymer (blank). Samples were maintained on a water bath at temperature 37° C. during 5 hrs. Measurement of viscosity was made by Visco Star Plus. Decrease in viscosity is estimated in percentage relative to its initial value. It is established, that protection of Solu-NaHA with polymer A (HPS) against action of hyaluronidase gives a viscosity of 67-70% vs the control protection of 20-27%.

viscosity under enzyme activity, percentage relative to initial value (0.5% NaHA, 37° C., 5 hrs) | stability against the action of hyaluronidase (0.5% NaHA, viscosity over time versus blank (FIG. 6)) | stability against the action of hyaluronidase (0.1% NaHA, enzyme 10 U/ml, 37° C., up to 5 hrs, viscosity in percentage to initial value) | Substance
20-27% | 40-45% | – | sodium hyaluronate [0.5% solution of NaHA]
– | – | 58-63% | sodium hyaluronate [0.1% solution of NaHA]
